Converted amounts (≈) assume the structure as drawn.
Key:
[1] = physchem; format: physicochemical; settings: organic solvent or mixture
From the text: The amount of the Cl-C4 alkanol employed in the process of the invention should be sufficient to solubilize both the polymeric carrier and chlorthalidone. It will be apparent to those skilled in the art that best results will be achieved on a large scale using as high a concentration of chlorthalidone as is possible. Thus, optimally the process should be carried out using concentrations of chlorthalidone at the upper limits of solubility.

[2] = stability of the solution to ether formation; format: physicochemical; settings: chlorthalidone added to solution of polymeric carrier in C1-C4 alkanol
From the text: The polymeric carrier polyvinylpyrrolidone (PVP), used in the process of the invention must be pharmaceutically acceptable and be substantially soluble both in water and in the particular Cl-C4 alkanol selected for use in the process. Moreover, the polymeric carrier must be capable of forming a solid state dispersion of chlorthalidone after removal of the alkanol, and be capable of suppressing ether formation arising from reaction of the chlorthalidone with the Cl-C4 alkanol, as discussed above. The ability of a polymeric carrier to suppress ether formation can be determined routinely by dissolving chlorthalidone in a Cl-C4 alkanol, such as methanol, in a glass container in the presence and absence of the polymeric carrier and analyzing aliquots of the solution (taken at varying times up to 24 hours) for chlorthalidone content by HPLC techniques. An acceptable loss of chlorthalidone is up to about 2% after 24 hours at 40°C. The general use of polyvinylpyrrolidone (PVP), to prepare solid state dispersions of pharmaceutical active ingredients is described by the Chiou reference, supra. […] It is believed that PVP suppresses the formation of ethers primarily by complexing trace amounts of heavy metal ions thus making them unavailable for catalysis. […]

[3] = water; cited from earlier work

NS(=O)(=O)c1cc(C2(O)NC(=O)c3ccccc32)ccc1Cl (stereo not drawn) [Chlorthalidone]
solubility thermodynamic ([1]; ethanol): 15.5 mg/mL (≈ 45.8 mM)
solubility thermodynamic ([1]; isopropanol): 3.2 mg/mL (≈ 9.45 mM)
solubility thermodynamic ([1]; methanol): 76.1 mg/mL (≈ 225 mM)
stable to ether formation ([2]; continued heating): at least one hour
stable to ether formation ([2]; room temperature): at least four days
aqueous solubility [3]: ~0.12 mg/mL (≈ 0.354 mM)

Source: EP0125420B1, “Water soluble dispersions of chlorthalidone and process for preparing them” (Boehringer Ingelheim Pharmaceuticals Inc., priority 1983, dated 1984)
